Measured values: paper PMC10487316, “A high‐throughput microfluidic mechanoporation platform to enable intracellular delivery of cyclic peptides in cell‐based assays” (Bioengineering & Translational Medicine, 2023)
Where a SMILES comes first, the peptide text is derived from it. Bridges are numbered along the chain shown (N, C = ends). [ ]: non-standard residue; d: D form. Lys(N3) = [N-]=[N+]=NCCCC[C@H](N)C(=O)O; R8 = C=CCCCCCC[C@@](C)(N)C(=O)O; Cba = N[C@@H](CC1CCC1)C(=O)O; S5 = C=CCCC[C@](C)(N)C(=O)O; βAla = NCCC(=O)O

Target: T1, MDM2 (1–125) protein (Homo sapiens, UniProt Q00987)
T1 construct: made in house
T1 sequence (Q00987 1-125): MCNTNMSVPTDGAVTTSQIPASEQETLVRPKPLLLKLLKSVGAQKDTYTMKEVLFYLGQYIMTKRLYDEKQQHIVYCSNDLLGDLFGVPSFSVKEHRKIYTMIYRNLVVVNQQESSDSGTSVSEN
Test: MDM2 binding assay (fluorescence anisotropy competition)
Conditions: competition vs 50 nM FAM-labeled 12/1 peptide, 250 nM MDM2; heat map of Figure 5a
Method: MDM2 protein generation and binding studies were performed as described.[17] […] The competing molecules were then titrated against the complex of the FAM‐labeled peptide and protein. Curve‐fitting was carried out using Prism 4.0 (GraphPad) to determine K D values. Readings were carried out with an Envision Multilabel Reader (PerkinElmer). […] All titrations were carried out in triplicate.

In order of falling Kd:
1. CC(=O)N[C@@H](CC(C)C)C(=O)N[C@H](C(=O)N[C@@H](Cc1ccccc1)C(=O)N[C@@H](CCC(=O)O)C(=O)N[C@@H](CCC(=O)O)C(=O)N[C@@H](Cc1ccc(O)cc1)C(=O)N[C@@H](Cc1c[nH]c2ccccc12)C(=O)N[C@@H](C)C(=O)N[C@H](CCC(N)=O)C(=O)N[C@@H](CC(C)C)C(=O)N[C@H](C(=O)N[C@@H](CO)C(N)=O)[C@@H](C)O)[C@@H](C)O [MP-793] (Ac-LTFEEYWA[dQ]LTS-NH2)  115 nM
2. CC(=O)N[C@@H](CC(C)C)C(=O)N[C@H](C(=O)N[C@@H](Cc1ccccc1)C(=O)NC(C)(C)C(=O)N[C@@H](CCC(=O)O)C(=O)N[C@@H](Cc1ccc(O)cc1)C(=O)N[C@@H](Cc1c[nH]c2ccccc12)C(=O)N[C@@H](CCC(N)=O)C(=O)N[C@@H](CC(C)C)C(=O)N[C@@H](CC1CCC1)C(=O)NC(C)(C)C(=O)N[C@@H](CO)C(=O)N[C@@H](C)C(=O)N[C@@H](C)C(=O)O)[C@@H](C)O [MP-788, Ac-Leu-Thr-Phe-Aib-Glu-Tyr-Trp-Gln-Leu-Cba-Aib-Ser-Ala-Ala-OH]  88 nM
3. CC(=O)N[C@H](CC(C)C)C(=O)N[C@H](C(=O)N[C@@H](Cc1ccccc1)C(=O)N[C@@H](CCC(=O)O)C(=O)N[C@@H](CCC(=O)O)C(=O)N[C@@H](Cc1ccc(O)cc1)C(=O)N[C@@H](Cc1c[nH]c2ccccc12)C(=O)N[C@@H](C)C(=O)N[C@@H](CCC(N)=O)C(=O)N[C@@H](CC(C)C)C(=O)N[C@H](C(=O)N[C@@H](CO)C(N)=O)[C@@H](C)O)[C@@H](C)O [MP-191] (Ac-[dL]TFEEYWAQLTS-NH2)  27 nM
4. CC(C)C[C@@H]1NC(=O)[C@H](C)NC(=O)[C@H](Cc2c[nH]c3ccccc23)NC(=O)[C@H](Cc2ccc(O)cc2)NC(=O)[C@H](CCC(=O)O)NC(=O)[C@](C)(NC(=O)[C@H](Cc2ccccc2)NC(=O)[C@H](CO)NC(=O)[C@@H](NC(=O)[C@H](CO)NC(=O)CNC(=O)[C@H](CO)NC(=O)[C@H](CCCCN=[N+]=[N-])NC(=O)[C@H](CCC(=O)O)NC(=O)[C@@H](N)CCC(=O)O)[C@@H](C)O)CCCCCCC=CCCC[C@@](C)(C(N)=O)NC(=O)[C@H](CC(C)C)NC1=O [MP-181, H-Glu-Glu-Lys(N3)-Ser-Gly-Ser-Thr-Ser-Phe-R8*-Glu-Tyr-Trp-Ala-Leu-Leu-S5*-NH2] (H-EE[Lys(N3)]SGSTSF[R8]EYWALL[S5]-NH2; staple 10-17)  17 nM
5. Ac-LTFEEYWAQLTS-NH2 [MP-190]  17 nM
6. CC(=O)N[C@H](C(=O)N[C@@H](CO)C(=O)N[C@@](C)(Cc1ccccc1)C(=O)N[C@]1(C)CCCCCCC=CCCC[C@@](C)(C(N)=O)NC(=O)[C@H](CC(C)C)NC(=O)[C@H](CC(C)C)NC(=O)[C@H](C)NC(=O)[C@H](Cc2c[nH]c3ccccc23)NC(=O)[C@H](Cc2ccc(O)cc2)NC(=O)[C@H](CCC(=O)O)NC1=O)[C@@H](C)O [MP-159, Ac-Thr-Ser-(ɑ-Me-Phe)-R8*-Glu-Tyr-Trp-Ala-Leu-Leu-S5*-NH2]  15 nM
7. CC(=O)N[C@@H](CCCCN=[N+]=[N-])C(=O)NCCC(=O)N[C@@H](CC(C)C)C(=O)N[C@H](C(=O)N[C@@H](Cc1ccccc1)C(=O)N[C@]1(C)CCCCCCC=CCCC[C@@](C)(C(=O)N[C@@H](CCC(=O)O)C(=O)N[C@@H](C)C(=O)N[C@@H](C)C(=O)N[C@@H](C)C(=O)N[C@@H](C)C(=O)N[C@H](C)C(N)=O)NC(=O)[C@H](CC2CCC2)NC(=O)[C@H](CCC(N)=O)NC(=O)[C@H](C)NC(=O)[C@H](Cc2c[nH]c3ccccc23)NC(=O)[C@H](Cc2ccc(O)cc2)NC(=O)[C@H](CCC(=O)O)NC1=O)[C@@H](C)O [MP-834, Ac-Lys(N3)-betaAla-Leu-Thr-Phe-R8*-Glu-Tyr-Trp-Ala-Gln-Cba-S5*-Glu-Ala-Ala-Ala-Ala-DAla-NH2] (Ac-[Lys(N3)][βAla]LTF[R8]EYWAQ[Cba][S5]EAAAA[dA]-NH2; staple 6-13)  0.97 nM
8. CC(C)C[C@@H]1NC(=O)[C@H](C)NC(=O)[C@H](Cc2c[nH]c3ccccc23)NC(=O)[C@H](Cc2ccc(O)cc2)NC(=O)[C@H](CCC(=O)O)NC(=O)[C@](C)(NC(=O)[C@H](Cc2ccccc2)NC(=O)[C@H](CO)NC(=O)[C@@H](NC(=O)[C@H](CO)NC(=O)CNC(=O)[C@H](CO)NC(=O)[C@H](CCCCN=[N+]=[N-])NC(=O)[C@H](CCC(=O)O)NC(=O)[C@H](CCC(=O)O)NC(=O)[C@@H](N)CCC(=O)O)[C@@H](C)O)CCCCCCC=CCCC[C@@](C)(C(N)=O)NC(=O)[C@H](CC(C)C)NC1=O [MP-948, NH2-Glu-Glu-Glu-Lys(N3)-Ser-Gly-Ser-Thr-Ser-Phe-R8*-Glu-Tyr-Trp-Ala-Leu-Leu-S5*-NH2] (H-EEE[Lys(N3)]SGSTSF[R8]EYWALL[S5]-NH2; staple 11-18)  0.85 nM
9. CC(C)C[C@H]1NC(=O)[C@@H](CCCCN)NC(=O)[C@@H](CCC(=O)O)NC(=O)[C@@H](Cc2ccc(C(F)(F)F)cc2)NC(=O)[C@@H](CC(N)=O)NC(=O)C2(CCCC=CCCCCCC[C@](C)(C(=O)N[C@H](C)C(=O)N[C@H](C)C(=O)N[C@H](C)C(=O)N[C@H](C)C(=O)N[C@H](C)C(=O)N[C@H](C)C(N)=O)NC(=O)[C@@H](CC(C)C)NC1=O)CCCC=CCCC[C@@](C)(N)C(=O)N[C@H](C)C(=O)N[C@H](Cc1c[nH]c3cc(F)ccc13)C(=O)N[C@H](Cc1ccc(O)cc1)C(=O)N2 (stereo partly drawn) [MP-231, H-R5*-DAla-DTrp(6-F)-DTyr-B5**-DAsn-DPhe(4-CF3)-DGlu-DLys-DLeu-DLeu-R8*-DAla-DAla-DAla-DAla-DAla-DAla-NH2]  0.53 nM
